From the supplement of paper PMC10307832

Assays:
Assay in all cases: relative viability (nuclei count vs DMSO), 5 days (fraction); higher = more cells survive
EMC-BAC-2 = tested on: EMC-BAC-2
Outline: (§1)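 Relative viability equals treated-well nuclei counts divided by vehicle-well nuclei counts. Counts came from 4× images of lung cancer cell lines grown in 1536-well plates for 5 days after pin-tool dosing on the day after seeding. Dosing used one drug alone or a fixed anchor-drug dose plus five library-drug doses (not always all listed) in √10 steps, and values are medians of duplicate plates.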

EPLC-272H = tested on: EPLC-272H
Outline: as §1

HCC-78 = tested on: HCC-78
Outline: as §1

HCC-827 = tested on: HCC-827
Outline: as §1

LCLC-103H = tested on: LCLC-103H
Outline: as §1

LK-2 = tested on: LK-2
Outline: as §1

LOU-NH91 = tested on: LOU-NH91
Outline: as §1

LU99A = tested on: LU99A
Outline: as §1

LXF-289 = tested on: LXF-289
Outline: as §1

NCI-H1563 = tested on: NCI-H1563
Outline: as §1

NCI-H1666 = tested on: NCI-H1666
Outline: as §1

NCI-H1975 = tested on: NCI-H1975
Outline: as §1

NCI-H2085 = tested on: NCI-H2085
Outline: as §1

NCI-H2126 = tested on: NCI-H2126
Outline: as §1

NCI-H23 = tested on: NCI-H23
Outline: as §1

NCI-H2405 = tested on: NCI-H2405
Outline: as §1

NCI-H3122 = tested on: NCI-H3122
Outline: as §1

NCI-H322M = tested on: NCI-H322M
Outline: as §1

RERF-LC-KJ = tested on: RERF-LC-KJ
Outline: as §1

SK-LU-1 = tested on: SK-LU-1
Outline: as §1

SW 1573 = tested on: SW 1573
Outline: as §1

`C=C1C(=O)O[C@@H](CCCCCCCC)[C@@H]1C(=O)O` [C-75] + C[C@]1(O)C[C@@H](c2nc(-c3ccc4ccc(-c5ccccc5)nc4c3)c3c(N)nccn32)C1 [Linsitinib] (partner 1 µM) gave a relative viability (EMC-BAC-2; first compound 0.08 µM) of 0.791, a relative viability (EMC-BAC-2; first compound 0.253 µM) of 0.754 and a relative viability (EMC-BAC-2; first compound 0.8 µM) of 0.831. The relative viability (EMC-BAC-2; first compound 2.53 µM) was 0.761, the relative viability (EMC-BAC-2; first compound 8 µM) was 0.831 and the relative viability (EPLC-272H; first compound 0.08 µM) was 1.05. The relative viability (EPLC-272H; first compound 0.253 µM) was 1.23, the relative viability (EPLC-272H; first compound 0.8 µM) was 1.07 and the relative viability (EPLC-272H; first compound 2.53 µM) was 0.976. The relative viability (EPLC-272H; first compound 8 µM) was 1.11, the relative viability (HCC-78; first compound 0.08 µM) was 0.642 and the relative viability (HCC-78; first compound 0.253 µM) was 0.443. The relative viability (HCC-78; first compound 0.8 µM) was 0.493, the relative viability (HCC-78; first compound 2.53 µM) was 0.437 and the relative viability (HCC-78; first compound 8 µM) was 0.522. For the same molecule, the relative viability (HCC-827; first compound 0.08 µM) was 0.884, the relative viability (HCC-827; first compound 0.253 µM) was 0.92 and the relative viability (HCC-827; first compound 0.8 µM) was 1. The relative viability (HCC-827; first compound 2.53 µM) was 0.972, the relative viability (HCC-827; first compound 8 µM) was 0.923 and the relative viability (LCLC-103H; first compound 0.08 µM) was 0.999. For the same molecule, the relative viability (LCLC-103H; first compound 0.253 µM) was 1.29, the relative viability (LCLC-103H; first compound 0.8 µM) was 1.08 and the relative viability (LCLC-103H; first compound 2.53 µM) was 0.862. It also gave a relative viability (LCLC-103H; first compound 8 µM) of 1.09, a relative viability (LK-2; first compound 0.08 µM) of 0.416 and a relative viability (LK-2; first compound 0.253 µM) of 0.785. The relative viability (LK-2; first compound 0.8 µM) was 0.607, the relative viability (LK-2; first compound 2.53 µM) was 0.514 and the relative viability (LK-2; first compound 8 µM) was 0.369. The relative viability (LOU-NH91; first compound 0.08 µM) was 1, the relative viability (LOU-NH91; first compound 0.253 µM) was 0.82 and the relative viability (LOU-NH91; first compound 0.8 µM) was 0.875. It also gave a relative viability (LOU-NH91; first compound 2.53 µM) of 0.859, a relative viability (LOU-NH91; first compound 8 µM) of 1.02 and a relative viability (LU99A; first compound 0.08 µM) of 0.571. The relative viability (LU99A; first compound 0.253 µM) was 0.598, the relative viability (LU99A; first compound 0.8 µM) was 0.528 and the relative viability (LU99A; first compound 2.53 µM) was 0.412. For the same molecule, the relative viability (LU99A; first compound 8 µM) was 0.464, the relative viability (LXF-289; first compound 0.08 µM) was 0.925 and the relative viability (LXF-289; first compound 0.253 µM) was 0.979. For the same molecule, the relative viability (LXF-289; first compound 0.8 µM) was 0.953, the relative viability (LXF-289; first compound 2.53 µM) was 0.94 and the relative viability (LXF-289; first compound 8 µM) was 0.966. It also gave a relative viability (NCI-H1563; first compound 0.08 µM) of 1.24, a relative viability (NCI-H1563; first compound 0.253 µM) of 1.23 and a relative viability (NCI-H1563; first compound 0.8 µM) of 1.14. The relative viability (NCI-H1563; first compound 2.53 µM) was 1.28, the relative viability (NCI-H1563; first compound 8 µM) was 1.18 and the relative viability (NCI-H1666; first compound 0.08 µM) was 0.79. The relative viability (NCI-H1666; first compound 0.253 µM) was 1.01, the relative viability (NCI-H1666; first compound 0.8 µM) was 0.816 and the relative viability (NCI-H1666; first compound 2.53 µM) was 0.858. The relative viability (NCI-H1666; first compound 8 µM) was 0.644, the relative viability (NCI-H1975; first compound 0.08 µM) was 0.958 and the relative viability (NCI-H1975; first compound 0.253 µM) was 1.02. The relative viability (NCI-H1975; first compound 0.8 µM) was 0.945, the relative viability (NCI-H1975; first compound 2.53 µM) was 0.897 and the relative viability (NCI-H1975; first compound 8 µM) was 0.898. The relative viability (NCI-H2085; first compound 0.08 µM) was 0.935, the relative viability (NCI-H2085; first compound 0.253 µM) was 0.801 and the relative viability (NCI-H2085; first compound 0.8 µM) was 0.88. The relative viability (NCI-H2085; first compound 2.53 µM) was 0.806, the relative viability (NCI-H2085; first compound 8 µM) was 0.792 and the relative viability (NCI-H2126; first compound 0.08 µM) was 0.698. It also gave a relative viability (NCI-H2126; first compound 0.253 µM) of 0.783, a relative viability (NCI-H2126; first compound 0.8 µM) of 0.703 and a relative viability (NCI-H2126; first compound 2.53 µM) of 0.683. For the same molecule, the relative viability (NCI-H2126; first compound 8 µM) was 0.711, the relative viability (NCI-H23; first compound 0.08 µM) was 0.541 and the relative viability (NCI-H23; first compound 0.253 µM) was 0.784. For the same molecule, the relative viability (NCI-H23; first compound 0.8 µM) was 0.506, the relative viability (NCI-H23; first compound 2.53 µM) was 0.557 and the relative viability (NCI-H23; first compound 8 µM) was 0.561. It also gave a relative viability (NCI-H2405; first compound 0.08 µM) of 0.882, a relative viability (NCI-H2405; first compound 0.253 µM) of 0.728 and a relative viability (NCI-H2405; first compound 0.8 µM) of 0.872. It also gave a relative viability (NCI-H2405; first compound 2.53 µM) of 0.967, a relative viability (NCI-H2405; first compound 8 µM) of 0.989 and a relative viability (NCI-H3122; first compound 0.08 µM) of 1.02. The relative viability (NCI-H3122; first compound 0.253 µM) was 1.06, the relative viability (NCI-H3122; first compound 0.8 µM) was 1.04 and the relative viability (NCI-H3122; first compound 8 µM) was 1.1. For the same molecule, the relative viability (NCI-H322M; first compound 0.08 µM) was 0.887, the relative viability (NCI-H322M; first compound 0.253 µM) was 1.05 and the relative viability (NCI-H322M; first compound 0.8 µM) was 0.999. The relative viability (NCI-H322M; first compound 2.53 µM) was 0.816, the relative viability (NCI-H322M; first compound 8 µM) was 1.08 and the relative viability (RERF-LC-KJ; first compound 0.08 µM) was 0.912. For the same molecule, the relative viability (RERF-LC-KJ; first compound 0.253 µM) was 0.994, the relative viability (RERF-LC-KJ; first compound 0.8 µM) was 0.827 and the relative viability (RERF-LC-KJ; first compound 2.53 µM) was 0.739. It also gave a relative viability (RERF-LC-KJ; first compound 8 µM) of 0.971, a relative viability (SK-LU-1; first compound 0.08 µM) of 1.28 and a relative viability (SK-LU-1; first compound 0.253 µM) of 1.07. The relative viability (SK-LU-1; first compound 0.8 µM) was 1.05, the relative viability (SK-LU-1; first compound 2.53 µM) was 0.911 and the relative viability (SK-LU-1; first compound 8 µM) was 0.636. The relative viability (SW 1573; first compound 0.08 µM) was 0.819, the relative viability (SW 1573; first compound 0.253 µM) was 0.962 and the relative viability (SW 1573; first compound 0.8 µM) was 0.833. It also gave a relative viability (SW 1573; first compound 2.53 µM) of 0.615 and a relative viability (SW 1573; first compound 8 µM) of 0.705.
